Source: ChEMBL document CHEMBL4842340, “Development of Cagrilintide, a Long-Acting Amylin Analogue” (J Med Chem, 2021)
In brackets after ≈: the same amount, converted by molar mass. *1 amine or outer side, *2 acyl side, *3 side chain or, on linkers, in order; H or OH if unused. Where a SMILES comes first, the peptide text is derived from it. Bridges are numbered along the chain shown (N, C = ends). The star is where a group is joined. C20 diacid = O=C(O)CCCCCCCCCCCCCCCCCCC(=O)*; γGlu = O=C(O)[C@H](CCC(=O)[*:2])N[*:1]

Legend:
[1] = test system: Rattus norvegicus; test: Reduction in food intake in Sprague-Dawley rat at 30 nmol/kg, sc administered as single dose measured upto 24 hrs relative to control; format: functional; set-up: scale not given: the % may be the effect or the level left; details: time hrs <=24
[2] = test system: Rattus norvegicus; test: Reduction in food intake in Sprague-Dawley rat at 30 nmol/kg, sc administered as single dose measured after 24 to 48 hrs relative to control; format: functional; set-up: scale not given: the % may be the effect or the level left; details: time 24-48 hrs
[3] = Agonist activity at human AMY3R (CT+RAMP3) expressed in Hollex1 cells incubated for 3 hrs by luminescence assay; format: cell-based; details: Hollex1, 3 h
[4] = Agonist activity at human calcitonin receptor expressed in BHK570 cells assessed as increase in intracellular cAMP concentration incubated for 3 hrs in absence of albumin by CRE luciferase reporter gene assay; format: cell-based; details: BHK570, 3 h
[5] = species: Homo sapiens; test: Ratio of EC50 for human calcitonin receptor expressed in BHK570 cells to EC50 for human AMY3R (CT+RAMP3) expressed in Hollex1 cells; format: cell-based
[6] = Agonist activity at rat AMY3R (CT+RAMP3) expressed in tk-ts13 cells assessed as increase in intracellular cAMP level incuabted for 25 mins by CRE luciferase reporter gene assay; format: cell-based; details: tk-ts13, 25 min
[7] = Agonist activity at rat calcitonin receptor expressed in BHK-13 cells assessed as increase in intracellular cAMP concentration incubated for 25 mins by CRE luciferase reporter gene assay; format: cell-based; details: BHK-13, 25 min
[8] = species: Rattus norvegicus; test: Ratio of EC50 for rat calcitonin receptor expressed in BHK-13 cells to EC50 for rat AMY3R (CT+RAMP3) expressed in tk-ts13 cells; format: cell-based
[9] = Displacement of [125I]-amylin from human AMY3R (CTR+RAMP3) expressed in BHK-13 cells measured after 120 mins by scintillation proximity assay; format: cell-based
[10] = Displacement of [125I]-calcitonin from human calcitonin receptor expressed in tk-ts 13 cells measured after 120 mins by scintillation proximity assay; format: cell-based; details: tk-ts13
[11] = species: Homo sapiens; test: Ratio of IC50 for displacement of [125I]-calcitonin from human calcitonin receptor expressed in tk-ts 13 cells to IC50 for displacement of [125I]-amylin from human AMY3R (CTR+RAMP3) expressed in BHK-13 cells; format: cell-based
[12] = Displacement of [125I]-amylin from rat AMY3R (CTR+RAMP3) expressed in BHK-13 cells measured after 120 mins by scintillation proximity assay; format: cell-based
[13] = Displacement of [125I]-calcitonin from rat calcitonin receptor expressed in tk-ts 13 cells measured after 120 mins by scintillation proximity assay; format: cell-based; details: tk-ts13
[14] = species: Rattus norvegicus; test: Ratio of IC50 for displacement of [125I]-calcitonin from rat calcitonin receptor expressed in tk-ts 13 cells to IC50 for displacement of [125I]-amylin from rat AMY3R (CTR+RAMP3) expressed in BHK-13 cells; format: cell-based
[15] = Solubility of the compound in lactate at pH 3 by UPLC analysis; format: physicochemical; details: lactate buffer
[16] = Solubility of the compound in lactate at pH 4 by UPLC analysis; format: physicochemical; details: lactate buffer
[17] = Solubility of the compound in lactate at pH 5 by UPLC analysis; format: physicochemical; details: lactate buffer
[18] = Solubility of the compound in bis-tris propane at pH 6 by UPLC analysis; format: physicochemical; details: bis-tris propane buffer
[19] = Solubility of the compound in bis-tris propane at pH 6.5 by UPLC analysis; format: physicochemical; details: bis-tris propane buffer
[20] = Solubility of the compound in bis-tris propane at pH 7 by UPLC analysis; format: physicochemical; details: bis-tris propane buffer
[21] = Solubility of the compound in bis-tris propane at pH 7.5 by UPLC analysis; format: physicochemical; details: bis-tris propane buffer
[22] = Solubility of the compound in bis-tris propane at pH 8 by UPLC analysis; format: physicochemical; details: bis-tris propane buffer
[23] = molecular target: Insulin (Homo sapiens) (UniProt P01308); test: Effect on insulin (unknown origin) amyloid fibril formation assessed as lag time in glycyl-glycine buffer at pH 4 measured after 45 hrs by thioflavin-T fluorescence assay
[24] = molecular target: Insulin (Homo sapiens) (UniProt P01308); test: Effect on insulin (unknown origin) amyloid fibril formation assessed as peptide recovery in glycyl-glycine buffer at pH 4 measured after 45 hrs by thioflavin-T fluorescence assay relative to control; set-up: concentration or dose not given beside the values
[25] = test system: Rattus norvegicus; test: Reduction in food intake in Sprague-Dawley rat at 3 nmol/kg, sc administered as single dose measured upto 24 hrs relative to control; format: functional; set-up: scale not given: the % may be the effect or the level left; details: time hrs <=24
[26] = test system: Rattus norvegicus; test: Reduction in food intake in Sprague-Dawley rat at 3 nmol/kg, sc administered as single dose measured after 24 to 48 hrs relative to control; format: functional; set-up: scale not given: the % may be the effect or the level left; details: time 24-48 hrs

Insulin (Homo sapiens), sequence (P01308 whole entry): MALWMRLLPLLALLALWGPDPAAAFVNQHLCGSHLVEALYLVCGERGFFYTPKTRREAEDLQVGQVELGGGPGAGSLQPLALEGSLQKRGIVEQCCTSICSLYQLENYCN

SMILES	Activity [1]	Activity [2]	EC50 [3]	EC50 [4]	Ratio EC50 [5]	EC50 [6]	EC50 [7]	Ratio EC50 [8]	IC50 [9]	IC50 [10]	Ratio IC50 [11]	IC50 [12]	IC50 [13]	solubility [15]	solubility [16]	solubility [17]	solubility [18]	solubility [20]	TIME [23]	Activity [24]	other results
CC[C@H](C)[C@H](NC(=O)[C@H](CCC(=O)O)NC(=O)CNC(=O)[C@H](Cc1ccccc1)NC(=O)[C@H](CC(N)=O)NC(=O)[C@H](CC(N)=O)NC(=O)[C@H](CO)NC(=O)[C@H](CO)NC(=O)[C@H](CCCNC(=N)N)NC(=O)[C@H](Cc1cnc[nH]1)NC(=O)[C@H](CC(C)C)NC(=O)[C@H](Cc1ccccc1)NC(=O)[C@H](CCC(=O)O)NC(=O)[C@H](C)NC(=O)[C@H](CC(C)C)NC(=O)[C@H](CCCNC(=N)N)NC(=O)[C@H](CCC(N)=O)NC(=O)[C@@H](NC(=O)[C@H](C)NC(=O)[C@@H]1CSSC[C@H](NC(=O)[C@H](Cc2cnc[nH]2)NC(=O)CC[C@H](NC(=O)CCCCCCCCCCCCCCCCCCC(=O)O)C(=O)O)C(=O)N[C@@H](CC(N)=O)C(=O)N[C@@H]([C@@H](C)O)C(=O)N[C@@H](C)C(=O)N[C@@H]([C@@H](C)O)C(=O)N1)[C@@H](C)O)C(=O)N[C@@H](CC(C)C)C(=O)N[C@@H](CO)C(=O)N[C@@H](CCCNC(=N)N)C(=O)N[C@H](C(=O)N[C@@H](CC(N)=O)C(=O)N[C@H](C(=O)NCC(=O)N[C@@H](CO)C(=O)N[C@@H](CC(N)=O)C(=O)N[C@H](C(=O)N[C@@H](Cc1ccc(O)cc1)C(N)=O)[C@@H](C)O)C(C)C)[C@@H](C)O	53%	46%	–	–	–	–	–	–	–	–	–	–	–	–	–	–	–	–	–	–	–
CC[C@H](C)[C@H](NC(=O)[C@@H]1CCCN1C(=O)CNC(=O)[C@H](Cc1ccccc1)NC(=O)[C@H](CC(N)=O)NC(=O)[C@H](CC(N)=O)NC(=O)[C@H](CO)NC(=O)[C@H](CO)NC(=O)[C@H](Cc1c[nH]cn1)NC(=O)[C@H](Cc1cnc[nH]1)NC(=O)[C@H](CC(C)C)NC(=O)[C@H](Cc1ccccc1)NC(=O)[C@H](CCC(=O)O)NC(=O)[C@H](C)NC(=O)[C@H](CC(C)C)NC(=O)[C@H](CCCNC(=N)N)NC(=O)[C@H](CCC(N)=O)NC(=O)[C@@H](NC(=O)[C@H](C)NC(=O)[C@@H]1CSSC[C@H](NC(=O)[C@H](Cc2cnc[nH]2)NC(=O)CC[C@H](NC(=O)CCCCCCCCCCCCCCCCCCC(=O)O)C(=O)O)C(=O)N[C@@H](CC(N)=O)C(=O)N[C@@H]([C@@H](C)O)C(=O)N[C@@H](C)C(=O)N[C@@H]([C@@H](C)O)C(=O)N1)[C@@H](C)O)C(=O)N[C@@H](CC(C)C)C(=O)N1CCC[C@H]1C(=O)N1CCC[C@H]1C(=O)N[C@H](C(=O)N[C@@H](CC(N)=O)C(=O)N[C@H](C(=O)NCC(=O)N[C@@H](CO)C(=O)N[C@@H](CC(N)=O)C(=O)N[C@H](C(=O)N1CCC[C@H]1C(N)=O)[C@@H](C)O)C(C)C)[C@@H](C)O ({C20 diacid-γGlu}-HCNTATCATQRLAEFLHHSSNNFGPILPPTNVGSNTP-NH2; disulfide 2-7)	–	–	0.091 nM	0.067 nM	1	0.121 nM	0.109 nM	1	0.293 nM	0.264 nM	1	0.074 nM	0.134 nM	200 µM (≈ 880 µg/mL)	200 µM (≈ 880 µg/mL)	200 µM (≈ 880 µg/mL)	200 µM (≈ 880 µg/mL)	200 µM (≈ 880 µg/mL)	26 h	100%	Ratio IC50 [14]: 2; solubility [19]: 200 µM (≈ 880 µg/mL); solubility [21]: 200 µM (≈ 880 µg/mL); solubility [22]: 200 µM (≈ 880 µg/mL); Activity [25]: 68%; Activity [26]: 67%
CC[C@H](C)[C@H](NC(=O)[C@@H]1CCCN1C(=O)CNC(=O)[C@H](Cc1ccccc1)NC(=O)[C@H](CC(N)=O)NC(=O)[C@H](CC(N)=O)NC(=O)[C@H](CO)NC(=O)[C@H](CO)NC(=O)[C@H](Cc1cnc[nH]1)NC(=O)[C@H](CCCNC(=N)N)NC(=O)[C@H](CC(C)C)NC(=O)[C@H](Cc1ccccc1)NC(=O)[C@H](CCC(=O)O)NC(=O)[C@H](C)NC(=O)[C@H](CC(C)C)NC(=O)[C@H](CCCNC(=N)N)NC(=O)[C@H](CCC(N)=O)NC(=O)[C@@H](NC(=O)[C@H](C)NC(=O)[C@@H]1CSSC[C@H](NC(=O)[C@H](Cc2cnc[nH]2)NC(=O)[C@H](Cc2cnc[nH]2)NC(=O)[C@H](Cc2cnc[nH]2)NC(=O)CC[C@H](NC(=O)CCCCCCCCCCCCCCCCCCC(=O)O)C(=O)O)C(=O)N[C@@H](CC(N)=O)C(=O)N[C@@H]([C@@H](C)O)C(=O)N[C@@H](C)C(=O)N[C@@H]([C@@H](C)O)C(=O)N1)[C@@H](C)O)C(=O)N[C@@H](CC(C)C)C(=O)N1CCC[C@H]1C(=O)N1CCC[C@H]1C(=O)N[C@H](C(=O)N[C@@H](CC(N)=O)C(=O)N[C@H](C(=O)NCC(=O)N[C@@H](CO)C(=O)N[C@@H](CC(N)=O)C(=O)N[C@H](C(=O)N[C@@H](Cc1ccc(O)cc1)C(N)=O)[C@@H](C)O)C(C)C)[C@@H](C)O ({C20 diacid-γGlu}-HHHCNTATCATQRLAEFLRHSSNNFGPILPPTNVGSNTY-NH2; disulfide 4-9)	70%	45%	0.072 nM	0.407 nM	6	0.082 nM	6.76 nM	82	–	–	–	–	–	200 µM (≈ 952 µg/mL)	200 µM (≈ 952 µg/mL)	200 µM (≈ 952 µg/mL)	200 µM (≈ 952 µg/mL)	9 µM (≈ 42.8 µg/mL)	45 h	50%	–
CC[C@H](C)[C@H](NC(=O)[C@@H]1CCCN1C(=O)CNC(=O)[C@H](Cc1ccccc1)NC(=O)[C@H](CC(N)=O)NC(=O)[C@H](CC(N)=O)NC(=O)[C@H](CO)NC(=O)[C@H](CO)NC(=O)[C@H](Cc1cnc[nH]1)NC(=O)[C@H](Cc1cnc[nH]1)NC(=O)[C@H](CC(C)C)NC(=O)[C@H](Cc1ccccc1)NC(=O)[C@H](CCC(=O)O)NC(=O)[C@H](C)NC(=O)[C@H](CC(C)C)NC(=O)[C@H](CCCNC(=N)N)NC(=O)[C@H](CCC(N)=O)NC(=O)[C@@H](NC(=O)[C@H](C)NC(=O)[C@@H]1CSSC[C@H](NC(=O)[C@H](CCCNC(=N)N)NC(=O)CC[C@H](NC(=O)CCCCCCCCCCCCCCCCCCC(=O)O)C(=O)O)C(=O)N[C@@H](CC(N)=O)C(=O)N[C@@H]([C@@H](C)O)C(=O)N[C@@H](C)C(=O)N[C@@H]([C@@H](C)O)C(=O)N1)[C@@H](C)O)C(=O)N[C@@H](CC(C)C)C(=O)N1CCC[C@H]1C(=O)N1CCC[C@H]1C(=O)N[C@H](C(=O)N[C@@H](CC(N)=O)C(=O)N[C@H](C(=O)NCC(=O)N[C@@H](CO)C(=O)N[C@@H](CC(N)=O)C(=O)N[C@H](C(=O)N[C@@H](Cc1ccc(O)cc1)C(N)=O)[C@@H](C)O)C(C)C)[C@@H](C)O ({C20 diacid-γGlu}-RCNTATCATQRLAEFLHHSSNNFGPILPPTNVGSNTY-NH2; disulfide 2-7)	–	–	0.121 nM	0.107 nM	1	0.188 nM	0.539 nM	3	0.192 nM	0.039 nM	0.2	0.029 nM	0.087 nM	200 µM (≈ 897 µg/mL)	200 µM (≈ 897 µg/mL)	200 µM (≈ 897 µg/mL)	200 µM (≈ 897 µg/mL)	160 µM (≈ 717 µg/mL)	12 h	26%	Ratio IC50 [14]: 3; solubility [19]: 174 µM (≈ 780 µg/mL); solubility [21]: 200 µM (≈ 897 µg/mL); solubility [22]: 200 µM (≈ 897 µg/mL); Activity [25]: 56%; Activity [26]: 53%
